Assay results from paper PMC11521937, “Expression and characterization of pantothenate energy‐coupling factor transporters as an anti‐infective drug target” (Protein Science : A Publication of the Protein Society, 2024).
In brackets after ≈: the same amount, converted by molar mass. Where two headings read alike, the source gives them in different places.

Tests used:
[1] = system: Streptococcus pneumoniae DSM‐20566; assay: bacterial growth assay (MIC), S. pneumoniae DSM‐20566; assay type: cell-based
ECF‐module (EcfTAA′) = ECF‐module (EcfTAA′) (Streptococcus pneumoniae, UniProt A0A0H2ZPG6+Q04HV7+Q97N51); assay: SPR binding to immobilized ECF‐module
Excerpt: After identifying the optimal buffer and assessing the stability of the ECF transporter proteins, we proceeded to determine the binding affinity (K d) of small‐molecule inhibitors using SPR. This label‐free technique allows for the investigation of protein–ligand interactions in real time and requires protein immobilization (GE Healthcare Life Science, [2012]). […] The ECF‐PanT, ECF‐module, and ECF‐FolT2, each bearing a histidine tag, were immobilized on a high‐affinity poly‐nitrilotriacetic acid (poly‐NTA) sensor chip, which was initially activated using NiCl2. The His‐tagged proteins were then injected over the Ni^2+‐activated surface to strongly bind to the metal (Knecht et al., [2009]). The immobilization resonance unit (RU) levels were 12,000–15,000 for ECF‐PanT, 9000–12,000 for the ECF‐module, and 6000–9000 for ECF‐FolT2.
In this assay, we used HEPES buffer (10 mM HEPES, 50 mM NaCl, 50 μM EDTA, 0.05% (v/v) DDM, and a pH value of 7.5) as recommended by Xantec Bioanalytics, with a slight modification made to create a more favorable environment for the ECF proteins, enabling their stability to be maintained throughout the assay. Additionally, the protein was maintained in the buffer containing 5% (v/v) DMSO. For a more in‐depth description of the procedures, please refer to Appendix S1.
Surface plasmon resonance (SPR)
The SPR binding studies were performed using a Reichert 4SPR surface plasmon resonance spectrometer (Reichert Technologies, Buffalo, NY, USA), and medium–density NTA derivatized polycarboxylate hydrogel NiHC200M sensor chips (XanTec Bioanalytics, Düsseldorf, Germany). The experimental procedure involved two rounds of nickel activation and one immobilization step at a concentration of 200 nM. The proteins ECF-module (92,56146 kDa), ECF-PanT (113,8745 kDa), and ECF-FolT2 (112,16316 kDa) were immobilized in flow cells 1, 2, and 3, respectively according to the standard protocol as provided by Xantec bioanalytics with a slight modification based on the recombinant proteins. The flow-cell 4 was left blank to serve as a reference.
The immobilization buffer employed for the immobilization process consisted of 10 mM HEPES with a pH of 7.5, 50 mM NaCl, 50 µM EDTA, and 0.05% DDM without DMSO. Following the immobilization step, for the binding study of the compounds, the running buffer was exchanged for the mentioned buffer with 5% v/v DMSO. This was done to ensure consistency in the percentage of DMSO present in the solutions containing the respective testing inhibitors, as these inhibitors were soluble in the DMSO solvent. By maintaining the same DMSO concentration, we aimed to minimize any potential solvent-related effects on the assay results. All running buffers were filtered and degassed before use.
The system was initially primed with 5 mM NiCl2 with an association and dissociation time of 2 min for each to activate the NTA sensor chip. Then, the recombinant proteins with a concentration of 200 nM were injected at a flow rate of 10 µL/min for 8 min. Finally, the baseline check with the running […]
the ECF-module, ECF-PanT, and ECF-FolT2, respectively.
First, the calibration curve for correction of the DMSO effect was prepared; the concentrations were 3%, 3.5% 4%, 4.5%, 5%, 5.5%, 6%, 6.5%, and 7% v/v and were diluted with SPR buffer. Then, the […]
concentration of DMSO in all the samples was set to 5% v/v DMSO. The samples (200 µL) were loaded on a 96-well plate and were injected at a flow rate of 50 μL/min. Single-cycle kinetics were applied for KD determination. The association time was set to 60 s, and the dissociation phase was recorded for 120 s. For surface regeneration, 0.35 M EDTA (pH 8.5) and 0.1 M NaOH were used. Data processing and analysis were performed by Scrubber software (Version 2.0c, 2008, BioLogic Software). Sensorgrams were calculated by sequential subtractions of the corresponding curves obtained from the reference flow cell and the running buffer (blank). SPR responses were expressed in the resonance unit (RU). The KD […]

S. pneumoniae ECF‐PanT = assay: Transport‐activity assay, radiolabeled pantothenate uptake into proteoliposomes; assay type: biochemical, Streptococcus pneumoniae; conditions: 250 μM compound + 5 mM of Mg-ATP, relative to 5 mM Mg‐ATP alone
Protocol: Based on the reported transport activity assay on L. delbrueckii (Swier et al., [2016]), for the first time, we adapted this assay to a pathogenic bacterium. To do so, we purified the ECF‐PanT transporter, reconstituted it into proteoliposomes, and carried out transport assays with radiolabeled pantothenate. Upon the addition of MgATP, the radiolabeled pantothenate is translocated across the membrane via an ATP‐dependent mechanism. MgATP at 5 mM served as a positive control, supplying the proteins with the energy needed to complete the transport cycle, while MgADP at 5 mM was used as a negative control. The uptake of the radiolabeled substrate into proteoliposomes was measured using a scintillation counter.
The assay was performed based on the published protocol (Swier et al., [2016]). The only modification was reconstitution of S. pneumoniae ECF‐PanT in a 1:125 (w/w) ratio of protein to E. coli polar lipids into large unilamellar vesicles and using radiolabeled pantothenate for uptake.

[2] = In vitro MTT cytotoxicity assay, HepG2; assay type: cell-based, human; conditions: human, read-out: Percent (%) cell viability at 100 μM, HepG2 cells
Protocol: In vitro cytotoxicity evaluation […]
with minor modifications, which will be detailed below.
To obtain information regarding the toxicity of our compounds, their impact on the viability of human cells was investigated. HepG2 and A549 cells (2 × 10^4 cells per well) were seeded in 96-well, flat-bottomed culture plates in 100 µL culture medium (DMEM containing 10% fetal calve serum, 1% penicillin-streptomycin). Twenty-four hours after seeding the cells, medium was removed and replaced by medium containing test compounds in a final DMSO concentration of 1%. Compounds were tested in duplicates at a single concentration in 1% DMSO/medium. Epirubicin and doxorubicin were used as positive controls in serial dilutions starting from 10 µM, and rifampicin was used as a negative control (at 100 µM). The living cell mass was determined 48 h after treatment with compounds by adding 0.1 volumes of 3-(4,5-dimethylthiazol-2-yl)-2,5-diphenyltetrazolium bromide (MTT) solution (5 mg/mL sterile PBS) (Sigma, St. Louis, MO) to the wells. After incubating the cells for 30 min at 37 °C (atmosphere containing 5% CO2), medium was removed and MTT crystals were dissolved in 75 µL of a solution containing 10% SDS and 0.5% acetic acid in DMSO. The optical density (OD) of the samples was determined photometrically at 570 nm in a PHERAstar Omega plate reader (BMG labtech, Ortenberg, Germany). To obtain percent viability for each sample, their ODs were related to those of DMSO controls. At least two independent measurements were performed for each compound. The calculation of IC50 was performed using the nonlinear regression function of GraphPad Prism 10 (GraphPad Software, San Diego, CA, USA). […]

Sequence of ECF‐module (EcfTAA′) (Q04HV7 whole entry): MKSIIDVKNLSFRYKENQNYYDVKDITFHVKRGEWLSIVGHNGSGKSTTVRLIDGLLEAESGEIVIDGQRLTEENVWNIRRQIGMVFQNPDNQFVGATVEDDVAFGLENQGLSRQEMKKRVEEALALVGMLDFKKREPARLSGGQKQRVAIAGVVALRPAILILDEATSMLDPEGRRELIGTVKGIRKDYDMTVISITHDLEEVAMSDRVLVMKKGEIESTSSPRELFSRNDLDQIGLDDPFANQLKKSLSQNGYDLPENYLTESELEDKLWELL
Sequence of ECF‐module (EcfTAA′) (Q97N51 whole entry): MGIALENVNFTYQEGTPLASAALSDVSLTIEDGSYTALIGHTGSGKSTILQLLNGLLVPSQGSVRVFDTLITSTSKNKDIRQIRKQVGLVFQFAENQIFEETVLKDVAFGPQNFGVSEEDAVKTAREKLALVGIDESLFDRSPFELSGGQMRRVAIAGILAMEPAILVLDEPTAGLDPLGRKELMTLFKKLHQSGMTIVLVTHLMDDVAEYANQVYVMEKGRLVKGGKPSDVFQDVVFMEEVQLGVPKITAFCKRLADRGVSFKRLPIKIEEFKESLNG
Sequence of ECF‐module (EcfTAA′) (A0A0H2ZPG6 entry or part of it): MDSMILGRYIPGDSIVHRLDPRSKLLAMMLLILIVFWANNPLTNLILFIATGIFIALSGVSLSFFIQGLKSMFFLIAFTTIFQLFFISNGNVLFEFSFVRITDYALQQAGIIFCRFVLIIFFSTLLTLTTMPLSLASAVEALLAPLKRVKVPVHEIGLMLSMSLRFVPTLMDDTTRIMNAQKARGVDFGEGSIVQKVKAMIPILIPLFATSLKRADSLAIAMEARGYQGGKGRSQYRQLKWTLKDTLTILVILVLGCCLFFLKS

Structure (SMILES)	MIC [1] [µM]	Kd (ECF‐module (EcfTAA′)) [µM]	Percentage inhibition of pantothenate uptake (S. pneumoniae ECF‐PanT) [%]	viability at 48 h, 100 µM ([2]; HepG2 cells) [%]	viability at 48 h, 100 µM [2] [%]
O=C(O)c1cccc(NCc2ccc(-c3ccc(Cl)cc3)o2)c1 [Compound 4]	64 (≈ 21 µg/mL)	> 200	95.2	88 ± 9	
CC(C)(C)OC(=O)Nc1ccc(OCc2cccc3ccccc23)cc1C(=O)O [Compound 3]	16 (≈ 6.3 µg/mL)	> 200	80.7		49 ± 3
O=C(O)c1cccc(NCc2ccc(-c3ccccc3Cl)o2)c1 [Compound 6]	128 (≈ 42 µg/mL)	> 200	61.9	105 ± 3	
O=C(O)c1cc(OCc2cccc3ccccc23)ccc1O [Compound 1]	128 (≈ 37.7 µg/mL)	> 200	81.8		20 ± 2
O=C(O)c1cc(OCc2ccc(Br)c3ccccc23)ccc1O [Compound 2]	8 (≈ 2.99 µg/mL)	> 200	117.2		23 ± 7
O=C(O)c1cccc(NCc2ccc(-c3cccc(Cl)c3)o2)c1 [Compound 5]	128 (≈ 42 µg/mL)	> 200	90.6	106 ± 8	
